Laboratory results as given in patent publication US11834640B2, “Device and uses thereof for treating diabetes” (Board of Regents, The University of Texas System, priority 2019, dated 2023).

Assays:
Format in all cases: cell-based, mouse
[1] = system: βTC-6 cells; assay: Calcium spiking frequency (Fluo-8) after 810 nm PBM exposure, pharmacologic studies
Procedure: Cell Culture. […] Cell passage was performed weekly with 0.25% Trypsin-EDTA. Samples were prepared by seeding βTC-6 cells on glass coverslips in low glucose media. These samples were used for experimentation between days 2 through 5. All cells were incubated at 37° C. in a 5% CO2 environment.
(§1) PBM Parameters. A Cytonsys (Austin, TX) 810 nm near-infrared laser was used to perform all experimentation. […] Herein, all βTC-6 samples were exposed to 810 nm for 1 minute with an irradiance of 150 mW/cm^2, resulting in a fluence of 9 J/cm^2. To measure the bulk temperature rise that was due to laser exposure, an Omega HH42A thermistor was used before and after irradiation.
(§2) Live Cell Imaging. For calcium and mitochondrial superoxide (mROS) detection, the cells were stained with Fluo-8 (0.8 μM, Abcam, Cambridge, UK), Mitosox (5 μM, Thermo-Fisher, Waltham, MA) and 1 drop/mL of Nucblue (Thermo-Fisher, Waltham, MA) for detection of intracellular calcium, mROS, and nucleic acid, respectively. The fluorescent dye DAF-FM (5 μM, Thermo-Fisher) was used to detect and measure cytosolic nitric oxide (NO). Hanks balanced salt solution (HBSS) was used (H8264, Sigma, St. Louis, MO) unless stated otherwise. Samples were stained at 37° C. for 30 minutes before being washed and mounted onto the imaging chamber.
Calcium Activity Analysis. Regions of interest (ROIs) were placed on individual cells using the nucleic acid staining and transferred to perform and calculate mean fluorescent intensity over time with background subtraction. Approximately 100 to 200 cells were monitored for each data point, and the results were averaged. A conservative moving average threshold (10 data points) with a 10% cutoff was used to determine a calcium spike. […] The active population was defined by the total number of active cells divided by the number of cells analyzed. The average spiking frequency of these active cells was then determined at each time point. Measurements were taken using Nikon Elements software and data analysis was carried out using Microsoft Excel. […]

[2] = system: βTC-6 insulinoma cells; assay: Intracellular calcium rise (Fluo-8) after electric field exposure, blocking experiment; conditions: verapamil 100 μM, incubated 30 minutes before 3 V/cm EF for 15 min, HBSS
Procedure: Calcium labeling and depletion. Samples were washed with HBSS (Sigma) and incubated with 0.8 μM Fluo-8 (Abcam) for 30 minutes. NucBlue solution (Thermo) was added for 15 min in accordance to the manufacturer's recommended concentration to stain the nuclei. Cells were washed again and mounted onto the chamber. Changes in the Fluo-8 fluorescent intensity were monitored and recorded. Fluorescent images were acquired for 2 min at 5 s intervals with a 250 ms exposure time before and after the DCEF was applied. Image analysis was performed using the Nikon Elements image processor by identifying a ROI selection on selected nuclei with mean intensity of Fluo-8 over time. […]
Calcium Fluorescent Microscopy. […] Measurements for calcium rise recorded a single static image before and after EF exposure, while calcium spiking was recorded over 2 minutes before and after EFS with a 5 second sampling interval.
Calcium Image Analysis. For calcium rise, the mean intensity of clusters in the sample were measured at 0 minute (Pre) and 15 minute (Post) time points using Nikon Elements. Background subtraction was then performed and the percent change was determined by comparing the post-exposure to the pre-exposure mean intensities. […] The mean intensity over time was measured for both the pre and post imaging sessions. […]

[3] = system: βTC-6 cells; assay: Mitochondrial superoxide (MitoSOX intensity) after 810 nm PBM exposure; conditions: ascorbic acid 2.5 mM, 9 J/cm^2
Procedure: as §1, with “experimentation. […] The energy density of 9 J/cm^2 was previously shown to have therapeutic effects on hepatic tissue in a diabetic state.” for “experimentation.”
as §2
Pharmacologic Studies. All drugs were added to the staining buffer. Samples were treated with each drug for 30 minutes before imaging. For L-type VGCC blocking, Verapamil (100 μM, V4629, Sigma) was applied. Capsazepine (10 μM, C191, Sigma) was added as a TRPV1 antagonist. […]

## NCCOB(c1ccccc1)c1ccccc1 [2-APB]
[1]; 2-APB 10 μM (FIG. 10B legend 20 μM), 30 minutes, 9 J/cm^2
  calcium spiking frequency following PBM: significantly impede such an increase in the calcium spiking frequency by PBM

## COc1ccc(CCN(C)CCCC(C#N)(c2ccc(OC)c(OC)c2)C(C)C)cc1OC (centres unmarked) [Verapamil]
[2]
  increase in intracellular calcium level in response to EF: effectively blocked the increase in intracellular calcium level

## O=C1O[C@H]([C@@H](O)CO)C(O)=C1O [ascorbic acid, Ascorbic Acid]
[1]; ascorbic acid 2.5 mM, 9 J/cm^2
  calcium spiking frequency of active cells following PBM, AA-treated versus control: no significant difference in the calcium spiking frequency analysis between the AA-treated and control cells until the 10-minute time point
[3]
  MitoSOX intensity following PBM (superoxide): significant reduction in the MitoSOX intensity

## O=C1CN(/N=C/c2ccc(-c3ccc([N+](=O)[O-])cc3)o2)C(O)=N1 [dantrolene, Dantrolene]
[1]; dantrolene 50 μM, 30 minutes, 9 J/cm^2, difference only noticeable at the 15-minute mark
  calcium spiking frequency following PBM, versus control: decreased in comparison to the control
